In ChEMBL document CHEMBL1201862, “PubChem BioAssay data set” (2004):
The source made the active and inactive calls.

Assays:
CHO-K1 = test: Counterscreen for antagonists of the orexin 1 receptor (OX1R; HCRTR1): Homogeneous time resolved fluorescence (HTRF)-based cell-based dose response assay to identify antagonists of the parental CHO-K1 cell line. [Related pubchem assays (depositor defined):AID434989, AID435008, AID463079, AID485270, AID492963, AID492964, AID492965, AID493232, AID504699, AID504701]; format: functional; settings: Cricetulus griseus;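 further: potency for inhibition of ATP-stimulated IP1 production as antagonists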
[1] = Counterscreen for antagonists of the orexin 1 receptor (OX1R; HCRTR1): Fluorescence-based cell-based high throughput dose response assay to identify antagonists of the parental CHO cell line. [Related pubchem assays (depositor defined):AID434989, AID435008, AID463079, AID485270, AID492963, AID492964, AID492965, AID493232, AID504699, AID504701]; format: functional
[2] = molecular target: T1, Orexin/Hypocretin receptor type 1 (Homo sapiens, UniProt O43613); test: Homogeneous Time Resolved Fluorescence (HTRF)-based cell-based high throughput dose response assay for antagonists of the orexin 1 receptor (OX1R; HCRTR1). [Related pubchem assays (depositor defined):AID434989, AID435008, AID463079, AID485270, AID492963, AID492964, AID492965, AID493232, AID504717, AID504718]; format: functional
T1 sequence (O43613 whole entry): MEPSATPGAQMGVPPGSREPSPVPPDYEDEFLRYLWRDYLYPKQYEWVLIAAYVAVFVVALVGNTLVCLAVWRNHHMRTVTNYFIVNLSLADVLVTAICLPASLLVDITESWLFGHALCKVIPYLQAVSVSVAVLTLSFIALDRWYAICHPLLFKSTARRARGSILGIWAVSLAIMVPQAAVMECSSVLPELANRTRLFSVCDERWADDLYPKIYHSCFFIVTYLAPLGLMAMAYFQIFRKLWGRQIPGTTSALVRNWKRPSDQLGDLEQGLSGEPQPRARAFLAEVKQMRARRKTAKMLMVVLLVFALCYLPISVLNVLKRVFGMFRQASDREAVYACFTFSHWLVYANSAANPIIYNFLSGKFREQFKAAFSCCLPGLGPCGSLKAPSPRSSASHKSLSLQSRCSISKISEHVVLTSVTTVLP

[3] = molecular target: T1, Orexin/Hypocretin receptor type 1; test: Fluorescence-based cell-based high throughput dose response assay for antagonists of the orexin 1 receptor (OX1R; HCRTR1). [Related pubchem assays (depositor defined):AID434989, AID435008, AID463079, AID485270, AID492963, AID492964, AID492965, AID493232, AID504717, AID504718]; format: functional
Orexin receptor type 2 [4] = molecular target: T2, Orexin receptor type 2 (Homo sapiens, UniProt O43614); test: Counterscreen assay for antagonists of the orexin 1 receptor (OX1R; HCRTR1): Fluorescence-based cell-based dose response assay for antagonists of the orexin 2 receptor (OX2R; HCRTR2), run by assay provider.; format: functional
T2 sequence (O43614 whole entry): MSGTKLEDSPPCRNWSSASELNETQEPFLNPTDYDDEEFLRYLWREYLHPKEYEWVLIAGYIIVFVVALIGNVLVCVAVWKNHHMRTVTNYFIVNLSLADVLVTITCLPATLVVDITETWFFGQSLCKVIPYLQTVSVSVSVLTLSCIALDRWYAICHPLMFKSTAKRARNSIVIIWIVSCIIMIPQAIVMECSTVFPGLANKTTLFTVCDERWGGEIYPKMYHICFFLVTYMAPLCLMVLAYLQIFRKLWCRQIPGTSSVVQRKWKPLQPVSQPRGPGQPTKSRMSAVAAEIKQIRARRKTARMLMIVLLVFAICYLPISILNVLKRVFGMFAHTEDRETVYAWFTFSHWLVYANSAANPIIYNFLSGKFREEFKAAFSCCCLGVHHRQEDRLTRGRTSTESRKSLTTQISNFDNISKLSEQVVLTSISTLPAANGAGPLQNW

Orexin receptor type 2 [5] = molecular target: T2, Orexin receptor type 2; test: Counterscreen assay for antagonists of the orexin 1 receptor (OX1R; HCRTR1): Homogeneous Time Resolved Fluorescence (HTRF)-based cell-based dose response assay for antagonists of the orexin 2 receptor (OX2R; HCRTR2), run by assay provider.; format: functional
Insulin-degrading enzyme [6] = molecular target: T3, Insulin-degrading enzyme (Homo sapiens, UniProt P14735); test: activators of recombinant IDE enzyme, dose response, counter-screen for IDE activator project, biochemical, fluorescence polarization (AID 588681)
T3 sequence (P14735 whole entry): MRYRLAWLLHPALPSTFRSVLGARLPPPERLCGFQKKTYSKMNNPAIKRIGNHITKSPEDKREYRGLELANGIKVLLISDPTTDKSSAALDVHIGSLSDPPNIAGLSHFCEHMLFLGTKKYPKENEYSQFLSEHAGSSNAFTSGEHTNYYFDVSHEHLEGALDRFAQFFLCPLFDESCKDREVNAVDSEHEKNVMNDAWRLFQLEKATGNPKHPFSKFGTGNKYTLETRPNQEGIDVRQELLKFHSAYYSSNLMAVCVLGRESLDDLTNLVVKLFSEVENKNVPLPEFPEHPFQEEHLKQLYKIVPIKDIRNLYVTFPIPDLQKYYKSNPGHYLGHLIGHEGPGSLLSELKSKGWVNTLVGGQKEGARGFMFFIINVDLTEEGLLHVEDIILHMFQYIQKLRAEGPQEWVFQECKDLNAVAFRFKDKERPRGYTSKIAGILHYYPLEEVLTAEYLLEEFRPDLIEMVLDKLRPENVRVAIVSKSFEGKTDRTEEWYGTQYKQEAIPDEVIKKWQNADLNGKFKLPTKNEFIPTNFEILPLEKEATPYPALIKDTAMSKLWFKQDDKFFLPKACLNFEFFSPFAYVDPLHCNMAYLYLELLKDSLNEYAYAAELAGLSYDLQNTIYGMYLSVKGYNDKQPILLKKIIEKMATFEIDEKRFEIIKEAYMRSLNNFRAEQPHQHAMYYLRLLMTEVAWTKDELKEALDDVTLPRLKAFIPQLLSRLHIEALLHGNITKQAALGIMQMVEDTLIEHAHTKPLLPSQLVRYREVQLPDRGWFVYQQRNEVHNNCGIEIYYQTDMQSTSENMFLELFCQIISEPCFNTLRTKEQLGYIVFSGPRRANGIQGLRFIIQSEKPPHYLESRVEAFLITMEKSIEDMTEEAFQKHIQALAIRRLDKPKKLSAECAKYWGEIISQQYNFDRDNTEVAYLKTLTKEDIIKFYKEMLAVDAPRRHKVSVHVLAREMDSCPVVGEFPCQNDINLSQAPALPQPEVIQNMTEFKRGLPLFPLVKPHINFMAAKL

Insulin-degrading enzyme [7] = molecular target: T3, Insulin-degrading enzyme; test: activators of endogenous IDE in HEK cells, dose response, cell-based, fluorescence polarization (AID 588439); format: functional
HEK293 [8] = test: HEK cell cytotoxicity by LDH release, dose response, cytotoxicity control for IDE activator project, fluorescence, HEK cells (AID 588440); format: functional, cell-based; settings: Homo sapiens;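 further: cytotoxicity by LDH release measuring loss of membrane integrity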
HEK293 [9] = test: optical interference in Abeta FP readout, dose response, artefact control for IDE activator project, biochemical, fluorescence polarization (AID 588442); format: functional, cell-based; settings: Homo sapiens
[10] = molecular target: T4, RNA-binding protein pos-1 (Caenorhabditis elegans, UniProt G5EF15); test: inhibitors of POS-1/mex-3 RNA binding, dose response, biochemical, fluorescence polarization (AID 1964);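 further: purified POS-1 fused to maltose binding protein made in E. coli; potency of compounds blocking POS-1 binding to fluorescent RNA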
T4 sequence (G5EF15 whole entry): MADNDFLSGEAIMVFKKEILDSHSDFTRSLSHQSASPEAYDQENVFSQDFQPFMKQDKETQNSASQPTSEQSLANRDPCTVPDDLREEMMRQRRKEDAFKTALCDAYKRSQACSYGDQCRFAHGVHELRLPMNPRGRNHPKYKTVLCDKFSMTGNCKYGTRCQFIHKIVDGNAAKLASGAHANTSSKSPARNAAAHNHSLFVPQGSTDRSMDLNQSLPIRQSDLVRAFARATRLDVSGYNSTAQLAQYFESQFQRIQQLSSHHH

[11] = molecular target: T5, Zinc finger protein mex-5 (Caenorhabditis elegans, UniProt Q9XUB2); test: MEX-5/TCR-2 RNA interaction inhibitors, dose response, biochemical, C. elegans, fluorescence polarization (AID 1960)
T5 sequence (Q9XUB2 whole entry): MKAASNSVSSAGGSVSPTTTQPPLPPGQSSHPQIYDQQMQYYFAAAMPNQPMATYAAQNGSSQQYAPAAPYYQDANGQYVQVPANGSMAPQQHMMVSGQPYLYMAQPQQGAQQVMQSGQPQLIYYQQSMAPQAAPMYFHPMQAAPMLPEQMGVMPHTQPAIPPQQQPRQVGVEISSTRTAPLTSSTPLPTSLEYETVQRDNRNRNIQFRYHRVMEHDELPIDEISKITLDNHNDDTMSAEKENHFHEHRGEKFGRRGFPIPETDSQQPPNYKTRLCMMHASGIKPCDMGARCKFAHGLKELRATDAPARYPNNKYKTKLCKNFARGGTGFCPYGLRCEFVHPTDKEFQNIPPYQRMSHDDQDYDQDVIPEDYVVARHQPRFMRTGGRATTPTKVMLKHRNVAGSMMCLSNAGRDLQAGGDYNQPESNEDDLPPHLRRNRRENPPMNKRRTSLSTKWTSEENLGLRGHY

ORF 73 = molecular target: T6, ORF 73 (Human herpesvirus 8, UniProt O40947); test: inhibitors of C-LANA binding to LBS DNA, dose response, biochemical, fluorescence polarization, cherry-picked samples (AID 504725); design: species or system Human gammaherpesvirus 8;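 further: fluorescence polarization of a labeled DNA duplex reporting LANA DNA binding; potency is for inhibitors that block LANA binding to the DNA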
T6 sequence (O40947 whole entry): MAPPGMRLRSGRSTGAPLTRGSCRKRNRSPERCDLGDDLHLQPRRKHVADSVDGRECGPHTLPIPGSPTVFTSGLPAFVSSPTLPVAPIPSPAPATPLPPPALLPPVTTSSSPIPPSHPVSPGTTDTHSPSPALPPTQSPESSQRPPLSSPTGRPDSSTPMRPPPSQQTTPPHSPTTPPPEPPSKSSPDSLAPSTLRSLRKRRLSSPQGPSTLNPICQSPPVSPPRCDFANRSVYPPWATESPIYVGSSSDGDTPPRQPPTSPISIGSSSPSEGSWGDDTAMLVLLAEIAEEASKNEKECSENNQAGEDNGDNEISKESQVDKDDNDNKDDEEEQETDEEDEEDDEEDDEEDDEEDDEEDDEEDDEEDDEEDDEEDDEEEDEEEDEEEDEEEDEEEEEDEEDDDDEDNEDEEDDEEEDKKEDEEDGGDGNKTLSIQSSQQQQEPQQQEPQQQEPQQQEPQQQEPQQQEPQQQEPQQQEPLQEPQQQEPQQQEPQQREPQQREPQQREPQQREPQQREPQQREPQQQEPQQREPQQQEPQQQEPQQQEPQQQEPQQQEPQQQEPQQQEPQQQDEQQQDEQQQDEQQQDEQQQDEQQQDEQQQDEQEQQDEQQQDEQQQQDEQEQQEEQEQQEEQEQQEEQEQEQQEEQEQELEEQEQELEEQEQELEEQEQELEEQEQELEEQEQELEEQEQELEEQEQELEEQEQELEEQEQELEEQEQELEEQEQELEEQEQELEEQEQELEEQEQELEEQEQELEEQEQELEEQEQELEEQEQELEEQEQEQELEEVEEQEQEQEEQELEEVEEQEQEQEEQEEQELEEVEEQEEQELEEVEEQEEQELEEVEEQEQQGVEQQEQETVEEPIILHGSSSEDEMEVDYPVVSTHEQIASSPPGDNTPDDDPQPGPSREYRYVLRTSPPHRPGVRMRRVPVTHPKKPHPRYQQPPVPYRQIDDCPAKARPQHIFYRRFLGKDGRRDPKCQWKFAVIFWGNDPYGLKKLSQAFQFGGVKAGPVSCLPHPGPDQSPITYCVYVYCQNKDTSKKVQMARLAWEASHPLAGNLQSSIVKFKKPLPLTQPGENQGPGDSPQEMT

[12] = molecular target: UDP-galactopyranose mutase (Mycobacterium tuberculosis, UniProt P9WIQ1); test: Inhibitors of Mycobacterium tuberculosis UDP-galactopyranose mutase (UGM) enzyme Measured in Biochemical System Using Plate Reader - 2105-02_Inhibitor_Dose_CherryPick_Activity. [Related pubchem assays (depositor defined):AID504439]
Chain of UDP-galactopyranose mutase (P9WIQ1 whole entry): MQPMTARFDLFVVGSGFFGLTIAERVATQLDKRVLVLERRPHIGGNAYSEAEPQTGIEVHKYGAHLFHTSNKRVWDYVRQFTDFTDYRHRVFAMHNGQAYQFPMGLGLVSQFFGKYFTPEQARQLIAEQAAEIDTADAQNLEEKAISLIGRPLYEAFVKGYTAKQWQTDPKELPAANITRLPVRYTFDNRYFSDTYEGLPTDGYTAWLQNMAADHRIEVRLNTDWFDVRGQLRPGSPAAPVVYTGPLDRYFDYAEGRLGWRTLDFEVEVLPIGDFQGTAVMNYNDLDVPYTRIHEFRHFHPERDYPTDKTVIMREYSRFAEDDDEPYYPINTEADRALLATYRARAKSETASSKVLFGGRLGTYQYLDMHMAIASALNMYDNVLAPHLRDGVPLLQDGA

Keap1/Nrf2 = Keap1/Nrf2 (Homo sapiens, UniProt Q14145); test: Keap1-Nrf2 protein-protein interaction inhibitors, dose response, biochemical, fluorescence polarization, cherry-picked samples (AID 588683)
Chain of Keap1/Nrf2 (Q16236 whole entry): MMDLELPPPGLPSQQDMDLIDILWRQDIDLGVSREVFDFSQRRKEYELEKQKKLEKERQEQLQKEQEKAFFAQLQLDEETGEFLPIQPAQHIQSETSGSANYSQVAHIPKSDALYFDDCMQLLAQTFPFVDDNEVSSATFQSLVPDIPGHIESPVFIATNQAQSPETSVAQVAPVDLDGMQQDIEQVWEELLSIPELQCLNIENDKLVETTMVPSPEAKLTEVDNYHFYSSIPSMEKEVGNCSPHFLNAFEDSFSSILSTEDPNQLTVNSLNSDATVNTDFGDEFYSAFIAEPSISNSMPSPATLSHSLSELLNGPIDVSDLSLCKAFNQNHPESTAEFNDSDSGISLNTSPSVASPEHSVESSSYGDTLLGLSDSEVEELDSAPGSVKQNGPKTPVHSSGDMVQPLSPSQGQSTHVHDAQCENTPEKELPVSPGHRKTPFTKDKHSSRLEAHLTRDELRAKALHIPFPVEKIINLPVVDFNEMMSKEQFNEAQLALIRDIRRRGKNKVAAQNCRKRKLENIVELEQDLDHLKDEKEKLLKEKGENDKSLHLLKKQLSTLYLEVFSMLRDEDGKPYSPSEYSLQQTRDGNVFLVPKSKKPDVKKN
Chain of Keap1/Nrf2 (Q14145 whole entry): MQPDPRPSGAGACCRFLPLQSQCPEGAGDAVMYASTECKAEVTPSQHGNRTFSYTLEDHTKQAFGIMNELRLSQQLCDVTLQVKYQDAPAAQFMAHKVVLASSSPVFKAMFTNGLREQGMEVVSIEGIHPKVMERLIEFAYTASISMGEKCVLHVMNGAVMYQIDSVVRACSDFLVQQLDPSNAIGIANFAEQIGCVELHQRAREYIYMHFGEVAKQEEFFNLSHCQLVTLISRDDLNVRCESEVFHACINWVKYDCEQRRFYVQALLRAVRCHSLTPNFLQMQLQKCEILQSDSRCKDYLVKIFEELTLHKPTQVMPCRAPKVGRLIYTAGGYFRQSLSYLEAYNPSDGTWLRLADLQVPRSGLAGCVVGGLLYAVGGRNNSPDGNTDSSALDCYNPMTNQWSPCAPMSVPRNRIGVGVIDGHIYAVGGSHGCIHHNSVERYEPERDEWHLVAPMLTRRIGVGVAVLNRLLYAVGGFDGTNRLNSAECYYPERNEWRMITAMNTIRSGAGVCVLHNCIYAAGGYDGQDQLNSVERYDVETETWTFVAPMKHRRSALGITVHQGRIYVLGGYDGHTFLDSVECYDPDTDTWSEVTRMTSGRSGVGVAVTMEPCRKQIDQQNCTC

[13] = molecular target: 26S proteasome non-ATPase regulatory subunit 14 (Homo sapiens, UniProt O00487); test: inhibition of proteasome subunit RPN11 – biochemical, fluorescence polarization, uHTS hits, confirmation (AID 602368); format: functional
Chain of 26S proteasome non-ATPase regulatory subunit 14 (O00487 whole entry): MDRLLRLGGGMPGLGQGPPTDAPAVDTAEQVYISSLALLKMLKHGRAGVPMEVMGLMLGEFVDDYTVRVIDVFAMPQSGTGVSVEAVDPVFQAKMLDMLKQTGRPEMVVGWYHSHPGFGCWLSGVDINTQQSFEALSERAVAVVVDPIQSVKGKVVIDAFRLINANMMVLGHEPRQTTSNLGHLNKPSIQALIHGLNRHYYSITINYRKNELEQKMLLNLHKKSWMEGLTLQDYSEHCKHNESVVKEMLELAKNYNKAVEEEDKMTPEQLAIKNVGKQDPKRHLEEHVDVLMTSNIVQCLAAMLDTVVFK

[14] = molecular target: 72 kDa type IV collagenase (Homo sapiens, UniProt P08253); test: Dose Response validation of uHTS RPN11 inhibitor hits using a MMP-2 Fluorescence assay.; format: functional
Chain of 72 kDa type IV collagenase (P08253 whole entry): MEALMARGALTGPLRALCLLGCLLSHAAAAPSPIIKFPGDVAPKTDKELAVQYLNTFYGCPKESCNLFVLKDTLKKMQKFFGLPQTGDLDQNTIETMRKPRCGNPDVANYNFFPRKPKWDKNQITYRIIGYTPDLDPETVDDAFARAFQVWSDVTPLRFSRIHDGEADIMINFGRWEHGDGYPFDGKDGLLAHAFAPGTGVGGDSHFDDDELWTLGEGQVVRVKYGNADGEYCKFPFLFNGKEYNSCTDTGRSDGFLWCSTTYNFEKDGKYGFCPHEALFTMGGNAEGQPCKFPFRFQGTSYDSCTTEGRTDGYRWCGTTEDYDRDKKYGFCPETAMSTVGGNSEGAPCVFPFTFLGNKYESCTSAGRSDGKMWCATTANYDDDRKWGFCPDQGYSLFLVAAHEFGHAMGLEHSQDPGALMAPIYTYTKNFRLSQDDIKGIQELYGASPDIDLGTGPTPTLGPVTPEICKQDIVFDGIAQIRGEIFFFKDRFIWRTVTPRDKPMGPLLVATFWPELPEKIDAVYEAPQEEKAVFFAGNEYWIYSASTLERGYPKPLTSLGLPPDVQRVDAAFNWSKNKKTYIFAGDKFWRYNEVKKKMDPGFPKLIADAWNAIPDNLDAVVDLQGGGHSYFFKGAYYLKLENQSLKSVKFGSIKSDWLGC

Prothrombin = Prothrombin (Bos taurus, UniProt P00735); test: thrombin inhibition, dose response, biochemical, fluorescence polarization, uHTS hits (AID 602369); format: functional

Row | Structure (SMILES) | IC50 (CHO-K1) | IC50 [1] | IC50 [2] | IC50 [3] | IC50 (Orexin receptor type 2 [4]) | IC50 (Orexin receptor type 2 [5]) | EC50 (Insulin-degrading enzyme [6]) | EC50 (Insulin-degrading enzyme [7]) | IC50 (HEK293 [8]) | EC50 (HEK293 [9]) | further results
1 | O=c1c2ccccc2nc2c3ccccc3c(NCc3ccccn3)nn12 | > 66.2 µM (inactive) | > 49.7 µM (inactive) | 4.96 µM (active) | 16.7 µM (inactive) | > 88.8 µM (inactive) | > 50 µM (inactive) |  |  |  |  | 
2 | Cc1ccsc1/C=N/N=C1\C(=O)Nc2ccccc21 | 46.8 µM (inactive) | > 49.7 µM (inactive) | 2.36 µM (active) | 8.44 µM (active) | > 88.8 µM (inactive) | > 50 µM (inactive) |  |  |  |  | 
3 | COc1cc(CNC2CCCC2)cc(OC)c1OC |  |  |  |  |  |  | > 54.7 µM (inactive) | > 54.7 µM (inactive) | > 89.1 µM (inactive) | > 54.7 µM (inactive) | 
4 | COc1ccc(NC(=O)NS(=O)(=O)c2ccc(C)cc2)cn1 |  |  |  |  |  |  | > 54.7 µM (inactive) | > 54.7 µM (inactive) | > 89.2 µM (inactive) | > 55.9 µM (inactive) | EC50 [10]: 2.37 µM (inconclusive); EC50 [11]: 2.38 µM (inconclusive); AC50 (ORF 73): 87.5 µM (active); AC50 [12]: 90.9 µM (active); AC50 (Keap1/Nrf2): > 52 µM (inactive)
5 | Cc1cc(C)c2cc3c(N)c(C(=O)Nc4c(C)nc(O)nc4O)sc3nc2c1 |  |  |  |  |  |  |  |  |  |  | IC50 [13]: 13.2 µM (active); IC50 [14]: > 100 µM (inactive); IC50 (Prothrombin): 15.5 µM (active)
